Drawing on patent US11155550B2, “Histone deacetylase inhibitors and methods of use thereof” (Reaction Biology Corp., priority 2018, dated 2021), this text covers IC50 for two compounds.

Holding throughout (settings): Table 2; incubation time 10 min
The target in experiment [1] is T1, Human HDAC4 (Homo sapiens, UniProt P56524).
T1 construct: amino acids 627-1085 with a N-terminal GST tag; GST tag (N); made in house; host or cells: baculovirus expression system
Put plainly: Biochemical HDAC enzymatic assay, HDAC4. How it is done:
(§1) Incubation time for HDAC1/2 is 120 min, and 10 min for other HDACs.
Human HDAC4 (GenBank Accession No. NM_006037), amino acids 627-1085 with a N-terminal GST tag, MW=75.2 kDa, was expressed in a baculovirus expression system.
(§2) • I. Compound handling: Testing compounds were dissolved in 100% DMSO to a specific concentration. The serial dilution was conducted by epMotion 5070 in DMSO. • II. HDAC reaction buffer: 50 mM Tris-HCl, pH8.0, 137 mM NaCl, 2.7 mM KCl, and 1 mM MgCl2, Added fresh: 1 mg/ml BSA, 1% DMSO. • III. […] Delivered 2× Substrate Mixture (Fluorogenic HDAC Substrate and co-factor ([…] of Nicotinamide adenine dinucleotide (NAD^+) in all Sirt assay) in all reaction wells to initiate the reaction. Spin and shake. • d. Incubated for 1-2 hr. at 30° C. with seal. • e. Added Developer with Trichostatin A (or TMP269 or NAD^+) to stop the reaction and to generate fluorescent color. • f. Fluorescence was read (excitatory, 360; emission, 460) using the EnVision Multilabel Plate Reader (Perkin Elmer) • g. Endpoint reading was taken for analysis after the development reaches plateau. • V. Data Analysis: The percentages of enzyme activity (relative to DMSO controls) and IC50 values were calculated using the GraphPad Prism 4 program based on a sigmoidal dose-response equation. […]

The target in experiment [2] is T2, Human HDAC10 (Homo sapiens, UniProt Q969S8).
T2 construct: Human HDAC10 (a.a. 1-481); GST tag (N); His tag (C); made in house; host or cells: baculovirus expression system
T2 sequence (Q969S8 1-481): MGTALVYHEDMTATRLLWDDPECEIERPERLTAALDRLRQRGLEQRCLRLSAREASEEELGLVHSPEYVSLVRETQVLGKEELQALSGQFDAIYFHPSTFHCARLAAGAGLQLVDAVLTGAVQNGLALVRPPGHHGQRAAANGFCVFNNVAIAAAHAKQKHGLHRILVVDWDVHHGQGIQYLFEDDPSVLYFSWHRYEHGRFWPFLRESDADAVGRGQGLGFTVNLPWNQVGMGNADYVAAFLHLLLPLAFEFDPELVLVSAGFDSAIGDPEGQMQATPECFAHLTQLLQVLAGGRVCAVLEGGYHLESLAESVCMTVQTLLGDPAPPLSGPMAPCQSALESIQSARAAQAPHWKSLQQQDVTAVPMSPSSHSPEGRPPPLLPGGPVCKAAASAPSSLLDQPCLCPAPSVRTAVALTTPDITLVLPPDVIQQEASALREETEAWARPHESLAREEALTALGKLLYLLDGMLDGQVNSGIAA
Put plainly: Biochemical HDAC enzymatic assay, HDAC10. The method, then:
as §1
Human HDAC10 (a.a. 1-481), GenBank Accession No. NM_032019 with a N-terminal GST tag and a C-terminal His tag, MW=78 kDa, was expressed in a baculovirus expression system.
as §2

In experiment [3] the target is T3, Human HDAC9 (Homo sapiens, UniProt Q9UKV0).
T3 construct: amino acids 604-1066 with a C-terminal His tag; His tag (C); made in house; host or cells: baculovirus expression system
Put plainly: Biochemical HDAC enzymatic assay, HDAC9. The method, then:
as §1
Human HDAC9 (GenBank Accession No. NM_178423), amino acids 604-1066 with a C-terminal His tag, MW=50.7 kDa, was expressed in a baculovirus expression system.
as §2

Experiment [4] addresses T4, Human HDAC5 (Homo sapiens, UniProt Q9UQL6).
T4 construct: full-length with an N-terminal GST tag, MW=150 kDa; GST tag (N); made in house; host or cells: baculovirus expression system
Put plainly: Biochemical HDAC enzymatic assay, HDAC5. The method, then: as §1
Human HDAC5 (GenBank Accession No. NM_005474), full-length with an N-terminal GST tag, MW=150 kDa, was expressed in a baculovirus expression system.
as §2

In experiment [5] the target is T5, Human HDAC7 (Homo sapiens, UniProt Q8WUI4).
T5 construct: (a.a. 518-end) with an N-terminal GST tag; GST tag (N); made in house; host or cells: baculovirus expression system
T5 sequence (Q8WUI4 479-952 limits assumed): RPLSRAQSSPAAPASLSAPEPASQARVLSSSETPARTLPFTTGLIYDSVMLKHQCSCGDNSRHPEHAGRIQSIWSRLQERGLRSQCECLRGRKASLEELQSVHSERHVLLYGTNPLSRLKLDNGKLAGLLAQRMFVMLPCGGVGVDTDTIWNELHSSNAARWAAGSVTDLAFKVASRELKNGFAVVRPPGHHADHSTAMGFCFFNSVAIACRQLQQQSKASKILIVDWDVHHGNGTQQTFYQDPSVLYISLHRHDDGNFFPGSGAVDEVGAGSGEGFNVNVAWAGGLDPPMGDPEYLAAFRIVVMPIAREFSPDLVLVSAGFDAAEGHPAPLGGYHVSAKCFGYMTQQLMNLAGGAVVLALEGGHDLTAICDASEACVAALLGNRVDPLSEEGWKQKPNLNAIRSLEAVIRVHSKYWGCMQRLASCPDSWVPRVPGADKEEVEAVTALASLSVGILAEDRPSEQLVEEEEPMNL
Nature of the experiment: Biochemical HDAC enzymatic assay, HDAC7. How it is done:
as §1
Human HDAC7 (GenBank Accession No. AY302468), (a.a. 518-end) with an N-terminal GST tag, MW=78 kDa, was expressed in a baculovirus expression system.
as §2

T1 sequence (P56524 627-1084 limits assumed): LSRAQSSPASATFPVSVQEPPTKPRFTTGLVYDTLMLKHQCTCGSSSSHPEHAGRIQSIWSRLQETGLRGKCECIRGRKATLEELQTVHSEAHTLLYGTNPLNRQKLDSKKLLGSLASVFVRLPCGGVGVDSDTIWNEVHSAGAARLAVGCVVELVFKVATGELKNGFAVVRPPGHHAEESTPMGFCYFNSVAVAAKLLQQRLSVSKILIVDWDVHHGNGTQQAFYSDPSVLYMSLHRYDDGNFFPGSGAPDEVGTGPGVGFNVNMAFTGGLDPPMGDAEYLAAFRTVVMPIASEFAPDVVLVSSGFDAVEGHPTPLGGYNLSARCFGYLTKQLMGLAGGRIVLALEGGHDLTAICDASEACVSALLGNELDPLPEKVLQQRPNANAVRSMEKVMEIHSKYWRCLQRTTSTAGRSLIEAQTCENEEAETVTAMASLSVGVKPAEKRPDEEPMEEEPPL
T4 sequence (Q9UQL6 whole entry): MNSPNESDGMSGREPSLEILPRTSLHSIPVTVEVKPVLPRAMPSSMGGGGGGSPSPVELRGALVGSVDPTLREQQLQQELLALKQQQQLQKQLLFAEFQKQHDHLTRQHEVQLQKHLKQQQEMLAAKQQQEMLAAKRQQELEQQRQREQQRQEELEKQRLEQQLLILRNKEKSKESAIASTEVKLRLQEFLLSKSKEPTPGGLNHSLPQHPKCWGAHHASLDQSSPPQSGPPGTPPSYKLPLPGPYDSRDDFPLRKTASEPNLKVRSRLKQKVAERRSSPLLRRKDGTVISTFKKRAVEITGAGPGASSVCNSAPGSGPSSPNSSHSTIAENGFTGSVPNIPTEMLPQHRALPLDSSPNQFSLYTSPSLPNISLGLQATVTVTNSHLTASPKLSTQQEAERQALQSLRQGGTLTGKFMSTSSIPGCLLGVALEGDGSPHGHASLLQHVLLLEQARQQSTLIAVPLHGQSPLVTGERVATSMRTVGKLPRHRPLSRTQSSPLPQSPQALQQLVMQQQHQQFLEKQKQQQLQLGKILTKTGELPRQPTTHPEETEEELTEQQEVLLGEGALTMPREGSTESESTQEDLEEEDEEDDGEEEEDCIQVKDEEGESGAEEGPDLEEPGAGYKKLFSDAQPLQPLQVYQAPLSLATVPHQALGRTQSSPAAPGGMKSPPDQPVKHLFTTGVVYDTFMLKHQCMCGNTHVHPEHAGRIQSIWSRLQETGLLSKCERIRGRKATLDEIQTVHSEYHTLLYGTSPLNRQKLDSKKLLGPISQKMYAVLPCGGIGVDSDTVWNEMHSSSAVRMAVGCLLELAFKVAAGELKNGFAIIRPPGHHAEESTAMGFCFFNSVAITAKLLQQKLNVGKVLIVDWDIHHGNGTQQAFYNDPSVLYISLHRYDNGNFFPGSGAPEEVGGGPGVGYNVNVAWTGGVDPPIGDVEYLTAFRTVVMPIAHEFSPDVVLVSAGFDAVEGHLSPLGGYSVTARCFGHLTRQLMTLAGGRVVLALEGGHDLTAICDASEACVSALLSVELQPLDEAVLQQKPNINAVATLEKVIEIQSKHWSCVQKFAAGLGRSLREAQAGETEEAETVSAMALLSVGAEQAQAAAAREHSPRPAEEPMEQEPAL
T3 sequence (Q9UKV0 604-1066 isoform Q9UKV0-5): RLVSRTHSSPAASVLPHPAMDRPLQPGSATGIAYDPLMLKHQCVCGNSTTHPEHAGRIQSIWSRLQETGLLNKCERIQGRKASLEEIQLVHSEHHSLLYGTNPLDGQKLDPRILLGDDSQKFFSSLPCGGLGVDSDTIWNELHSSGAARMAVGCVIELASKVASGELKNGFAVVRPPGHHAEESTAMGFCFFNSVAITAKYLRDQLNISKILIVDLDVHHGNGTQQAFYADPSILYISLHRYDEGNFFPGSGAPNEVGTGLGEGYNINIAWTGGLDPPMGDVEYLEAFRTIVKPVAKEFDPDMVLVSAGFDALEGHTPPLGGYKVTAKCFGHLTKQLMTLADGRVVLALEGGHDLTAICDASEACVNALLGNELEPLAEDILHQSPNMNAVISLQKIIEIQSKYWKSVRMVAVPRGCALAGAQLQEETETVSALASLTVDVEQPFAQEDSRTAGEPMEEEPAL

Turning to `O=C(NO)c1ccc(CN2C(=O)c3ccccc3C23CCN(C2CC2)CC3)cc1` [Compound Example 12, 4-((1′-cyclopropyl-3-oxospiro[isoindoline-1,4′-piperidin]-2-yl)methyl)-N-hydroxybenzamide], the IC50 in experiment [1] was more than 10 µM; in experiment [2], more than 10 µM; in experiment [3] it was 6.9 µM; in experiment [4], more than 10000 nM; in experiment [5] it was 3100 nM.
With `CN(C)C(=O)N1CCC2(CC1)c1ccccc1C(=O)N2Cc1ccc(C(=O)NO)cc1` [Compound Example 11, 2-(4-(hydroxycarbamoyl)benzyl)-N,N-dimethyl-3-oxospiro[isoindoline-1,4′-piperidine]-1′-carboxamide], the IC50 is 5 µM in experiment [1]; more than 10 µM in experiment [2]; 3.2 µM in experiment [3]; 1550 nM in experiment [4]; 850 nM in experiment [5].
